Test results published in patent publication US20250314644A1, “METHODS COMPRISING DETECTION OF ADP-HEPTOSE” (CHILDREN'S HOSPITAL MEDICAL CENTER, priority 2023, published 2025).

Tested on: Dnmt3a^WT cells
Assay: RNA-sequencing of HSPCs treated in vitro with ADP-heptose or H2O for 90 minutes
Type: cell-based, mouse

Compound: Nc1ncnc2c1ncn2[C@@H]1O[C@H](COP(=O)(O)OP(=O)(O)O[C@@H]2O[C@H]([C@H](O)CO)[C@@H](O)[C@H](O)[C@@H]2O)[C@@H](O)[C@H]1O [ADP-heptose, ADP-D-glycero-β-D-manno-heptose]
- logFC Isg15 (Dnmt3a^WT cells, vs H2O): 1.268
- logFC Jakmip1 (Dnmt3a^WT cells, vs H2O): −0.62
- logFC Kcnj5 (Dnmt3a^WT cells, vs H2O): −0.586
- logFC Kif19a (Dnmt3a^WT cells, vs H2O): −2.028
- logFC Klrd1 (Dnmt3a^WT cells, vs H2O): 0.6629
- logFC Kynu (Dnmt3a^WT cells, vs H2O): 0.8281
- logFC Lad1 (Dnmt3a^WT cells, vs H2O): 1.447
- logFC Lax1 (Dnmt3a^WT cells, vs H2O): −1.106
- logFC Lef1 (Dnmt3a^WT cells, vs H2O): −1.83
- logFC Lgals3bp (Dnmt3a^WT cells, vs H2O): 0.6079
- logFC Lrrc32 (Dnmt3a^WT cells, vs H2O): 0.6455
- logFC Lrrc51 (Dnmt3a^WT cells, vs H2O): 0.7656
- logFC Ltbp4 (Dnmt3a^WT cells, vs H2O): −0.7
- logFC Lynx1 (Dnmt3a^WT cells, vs H2O): 0.6016
- logFC Mir6236 (Dnmt3a^WT cells, vs H2O): 1.076
- logFC Mir6516 (Dnmt3a^WT cells, vs H2O): 0.6089
- logFC Mir8112 (Dnmt3a^WT cells, vs H2O): 0.8138
- logFC Mmp14 (Dnmt3a^WT cells, vs H2O): −0.771
- logFC Mnda (Dnmt3a^WT cells, vs H2O): 0.9121
- logFC Mpl (Dnmt3a^WT cells, vs H2O): −0.631
- logFC Ms4a4c (Dnmt3a^WT cells, vs H2O): 1.575
- logFC Mx1 (Dnmt3a^WT cells, vs H2O): 0.6985
- logFC Mx2 (Dnmt3a^WT cells, vs H2O): 1.416
- logFC Mzb1 (Dnmt3a^WT cells, vs H2O): −1.509
- logFC Nov (Dnmt3a^WT cells, vs H2O): 0.9714
- logFC Nr4a3 (Dnmt3a^WT cells, vs H2O): 0.7772
- logFC Oas1a (Dnmt3a^WT cells, vs H2O): 0.8999
- logFC Oas1b (Dnmt3a^WT cells, vs H2O): 0.8441
- logFC Oas1c (Dnmt3a^WT cells, vs H2O): 0.6578
- logFC Oas1g (Dnmt3a^WT cells, vs H2O): 1.142
- logFC Oas2 (Dnmt3a^WT cells, vs H2O): 0.966
- logFC Oas3 (Dnmt3a^WT cells, vs H2O): 0.864
- logFC Oasl1 (Dnmt3a^WT cells, vs H2O): 1.088
- logFC Oasl2 (Dnmt3a^WT cells, vs H2O): 1.178
- logFC Oit3 (Dnmt3a^WT cells, vs H2O): 0.5873
- logFC P4htm (Dnmt3a^WT cells, vs H2O): 0.6018
- logFC Parp12 (Dnmt3a^WT cells, vs H2O): 0.7346
- logFC Pcbd1 (Dnmt3a^WT cells, vs H2O): −0.601
- logFC Pcsk9 (Dnmt3a^WT cells, vs H2O): −0.871
- logFC Pdgfb (Dnmt3a^WT cells, vs H2O): 0.647
- logFC Perp (Dnmt3a^WT cells, vs H2O): 0.6841
- logFC Pglyrp2 (Dnmt3a^WT cells, vs H2O): 0.8355
- logFC Phf11b (Dnmt3a^WT cells, vs H2O): 1.046
- logFC Plcb1 (Dnmt3a^WT cells, vs H2O): 0.628
- logFC Plek2 (Dnmt3a^WT cells, vs H2O): 1.111
- logFC Pou2af1 (Dnmt3a^WT cells, vs H2O): −1.979
- logFC Ppbp (Dnmt3a^WT cells, vs H2O): 0.6175
- logFC Procr (Dnmt3a^WT cells, vs H2O): −0.659
- logFC Prok2 (Dnmt3a^WT cells, vs H2O): −0.608
- logFC Ptch2 (Dnmt3a^WT cells, vs H2O): −0.695
- logFC Ptpn 14 (Dnmt3a^WT cells, vs H2O): −1.123
- logFC Ptprn (Dnmt3a^WT cells, vs H2O): 0.7392
- logFC Rab17 (Dnmt3a^WT cells, vs H2O): −0.755
- logFC Rag1 (Dnmt3a^WT cells, vs H2O): −3.551
- logFC Ramp3 (Dnmt3a^WT cells, vs H2O): 0.8948
- logFC Rbp1 (Dnmt3a^WT cells, vs H2O): −0.727
- logFC Rsad2 (Dnmt3a^WT cells, vs H2O): 1.141
- logFC Rsph1 (Dnmt3a^WT cells, vs H2O): −0.696
- logFC Rtp4 (Dnmt3a^WT cells, vs H2O): 1.478
- logFC Scn4b (Dnmt3a^WT cells, vs H2O): −2.647
- logFC Sdc3 (Dnmt3a^WT cells, vs H2O): 0.6166
- logFC Siglech (Dnmt3a^WT cells, vs H2O): −0.625
- logFC Sirpb1b (Dnmt3a^WT cells, vs H2O): −0.633
- logFC Slc25a27 (Dnmt3a^WT cells, vs H2O): −0.715
- logFC Slc52a3 (Dnmt3a^WT cells, vs H2O): 0.8162
- logFC Slfn4 (Dnmt3a^WT cells, vs H2O): 0.7308
- logFC Slfn5 (Dnmt3a^WT cells, vs H2O): 1.407
- logFC Slfn8 (Dnmt3a^WT cells, vs H2O): 0.8032
- logFC Smim8 (Dnmt3a^WT cells, vs H2O): 0.6316
- logFC Smpdl3b (Dnmt3a^WT cells, vs H2O): −0.714
- logFC Snhg9 (Dnmt3a^WT cells, vs H2O): −0.7
- logFC Spry1 (Dnmt3a^WT cells, vs H2O): 0.6924
- logFC Srp54b (Dnmt3a^WT cells, vs H2O): 2.042
- logFC St6gal1 (Dnmt3a^WT cells, vs H2O): −0.723
- logFC Stbd1 (Dnmt3a^WT cells, vs H2O): 0.7931
- logFC Tmem51 (Dnmt3a^WT cells, vs H2O): 0.6591
- logFC Tnfrsf9 (Dnmt3a^WT cells, vs H2O): 0.982
- logFC Tnfrsf11b (Dnmt3a^WT cells, vs H2O): 3.017
- logFC Tnni1 (Dnmt3a^WT cells, vs H2O): 3.17
- logFC Traf1 (Dnmt3a^WT cells, vs H2O): 0.6999
- logFC Tsku (Dnmt3a^WT cells, vs H2O): −0.836
- logFC Tspan13 (Dnmt3a^WT cells, vs H2O): −0.592
- logFC Tssk6 (Dnmt3a^WT cells, vs H2O): 0.668
- logFC Ube2j2 (Dnmt3a^WT cells, vs H2O): 0.8674
- logFC Usp18 (Dnmt3a^WT cells, vs H2O): 1.346
- logFC Vpreb1 (Dnmt3a^WT cells, vs H2O): −2.268
- logFC Vpreb2 (Dnmt3a^WT cells, vs H2O): −2.096
- logFC Vpreb3 (Dnmt3a^WT cells, vs H2O): −2.553
- logFC Wdr86 (Dnmt3a^WT cells, vs H2O): 1.035
- logFC Xaf1 (Dnmt3a^WT cells, vs H2O): 1.054
- logFC Zbp1 (Dnmt3a^WT cells, vs H2O): 1.131
- logFC Zbtb37 (Dnmt3a^WT cells, vs H2O): −0.702
- logFC Zbtb46 (Dnmt3a^WT cells, vs H2O): 1.256
- differentially expressed genes (global transcriptomic analysis) (WT HSPCs): few differentially expressed genes
